{
  "source": "paper PMC5632727",
  "about": "“Boeravinone B, A Novel Dual Inhibitor of NorA Bacterial Efflux Pump of Staphylococcus aureus and Human P-Glycoprotein, Reduces the Biofilm Formation and Intracellular Invasion of Bacteria” (Frontiers in Microbiology, 2017)",
  "type_in_all_cases": "cell-based",
  "key": {"[1]": {"biological_target": "T1, NorA multidrug efflux pump (Staphylococcus aureus, UniProt Q03325)", "T1 construct": "gene norA1199", "T1 sequence (Q03325 entry or part of it)": "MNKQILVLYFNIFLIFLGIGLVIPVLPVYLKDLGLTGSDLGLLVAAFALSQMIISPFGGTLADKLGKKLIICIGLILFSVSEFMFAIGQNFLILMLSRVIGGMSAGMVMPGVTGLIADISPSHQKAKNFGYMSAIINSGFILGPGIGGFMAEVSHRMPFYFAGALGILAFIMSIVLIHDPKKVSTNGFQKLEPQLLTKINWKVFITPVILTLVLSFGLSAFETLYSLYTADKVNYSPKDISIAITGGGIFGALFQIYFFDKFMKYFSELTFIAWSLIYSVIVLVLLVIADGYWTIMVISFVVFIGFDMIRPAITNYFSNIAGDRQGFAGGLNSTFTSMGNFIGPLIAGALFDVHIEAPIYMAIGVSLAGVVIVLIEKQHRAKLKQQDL", "test": "ethidium bromide efflux and accumulation in NorA-overexpressing SA-1199B cells; no effect in norA knockout SA-K1758"}, "[2]": {"biological_target": "T1, NorA multidrug efflux pump", "test": "fluorescent efflux and accumulation in NorA-overexpressing, wild-type and knockout S. aureus cells"}, "[3]": {"biological_target": "T1, NorA multidrug efflux pump"}},
  "note": "Read-outs that look alike come from different tables or passages of the source.",
  "data": [
    {"smiles": "Cc1c(O)cc2oc3c(c(=O)c2c1O)-c1ccccc1OC3O", "note": "(stereo not drawn) [boeravinone B, 6,9,11-trihydroxy-10-methylchromeno[3,4-b]chromen-12(6H)-one]", "values": [
      {"measurement": "ethidium bromide efflux and accumulation in NorA-overexpressing SA-1199B cells;", "setting": "[1]", "value": "in cells treated with boeravinone B, the efflux of ethidium bromide was prevented, resulting in the prolonged retention of fluorescence"}
    ]},
    {"smiles": "CC[n+]1c(-c2ccccc2)c2cc(N)ccc2c2ccc(N)cc21", "note": "[ethidium bromide]", "values": [
      {"measurement": "fluorescent efflux and accumulation in NorA-overexpressing, wild-type and knocko", "setting": "[2]", "value": "a rapid decrease occurred in the fluorescence because of the NorA-mediated efflux of ethidium bromide"}
    ]},
    {"smiles": "COC(=O)[C@H]1[C@H]2C[C@@H]3c4[nH]c5cc(OC)ccc5c4CCN3C[C@H]2C[C@@H](OC(=O)c2cc(OC)c(OC)c(OC)c2)[C@@H]1OC", "note": "[reserpine]", "values": [
      {"measurement": "ethidium bromide efflux and accumulation in NorA-overexpressing SA-1199B cells;", "setting": "[3]", "value": "Reserpine, a known efflux pump inhibitor, was used as the positive control in both studies."}
    ]}
  ]
}
